Our source for the IC50 values is patent US8629147B2, “Heterocyclic compounds useful in the treatment of neoplastic diseases, inflammatory disorders and immunomodulatory disorders” (ChemBridge Corporation, priority 2005, dated 2014).

The target in test [1] is T1, human IGF1R kinase domain (Homo sapiens, UniProt P08069).
T1 construct: human IGF1R precursor protein corresponding to the amino acids positions 974 through 1293; 6xHis; made in house; host or cells: SF9 insect cells, recombinant baculovirus (Bac-to-Bac System)
T1 sequence (P08069 974-1293): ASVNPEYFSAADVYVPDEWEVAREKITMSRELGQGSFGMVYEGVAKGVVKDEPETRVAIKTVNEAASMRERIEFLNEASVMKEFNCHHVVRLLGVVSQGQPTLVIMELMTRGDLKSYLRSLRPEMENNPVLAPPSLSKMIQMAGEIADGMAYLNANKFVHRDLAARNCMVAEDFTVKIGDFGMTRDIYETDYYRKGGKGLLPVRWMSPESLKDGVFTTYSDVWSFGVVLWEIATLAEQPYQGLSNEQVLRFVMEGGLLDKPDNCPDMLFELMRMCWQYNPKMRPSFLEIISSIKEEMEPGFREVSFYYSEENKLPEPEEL
Nature of the test: IGF1R tyrosine phosphorylation inhibition, Alphascreen phosphotyrosine PT66 assay. Type of test: biochemical. The settings on record: recombinant kinase domain, 1 hour co-incubation, 20 to 0.1 μM. On the procedure:
Inhibition of IGF1R tyrosine phosphorylation was measured in the Alphascreen phosphotyrosine PT66 assay kit (Perkin Elmer Life sciences, Catalog number 6760602) according to the manufacturer's instructions. As a source of enzymatically active IGF1r kinase for this assay, SF9 insect cells were infected with recombinant baculovirus (Bac-to-Bac System, Invitrogen, Carlsbad, Calif.) encoding 6×His-tagged kinase domain portion of human IGF1R precursor protein corresponding to the amino acids positions 974 through 1293 (Abbott et al., 1992, J. Biol. Chem. 267:10759-10763) and recombinant kinase protein was purified to homogeneity using two-step chromatography on immobilized Ni^2+ resin (Ni-NTA) and ion-exchange Q-Sepharose column. Biotinylated poly glu-tyr 4:1 (CIS bio-international, catalog number 61GT0BLA) was used for the kinase substrate. Compounds were serially diluted to give a concentration range from 20 to 0.1 μM and co-incubated with IGF1r kinase, biotinylated peptide substrate and alphascreen components for 1 hour and then read in a Perkin-Elmer alphafusion plate reader. A plot of counts per minute versus log concentration of compounds was fitted to a sigmoidal dose response curve using Graphpad Prism software to generate IC50 values (see FIG. 1 for an example).
In general terms: Alpha assays give light when donor and acceptor beads are brought close together.

Test [2] concerns MCF7 human breast tumor cells. The test can be described thus: CellTiter-Glo luminescent cell viability assay, MCF7. Type of test: cell-based. The settings on record: 48 hours, 20 to 0.1 μM. The method, then:
(§1) Cell viability of either MCF7 human breast tumor cells (American Type Culture Collection catalog #HTB 22) or NCI-H929 human plasmacytoma cells (ATCC catalog #CRL-9068) was assessed using the Promega CellTiter-Glo luminescent cell viability assay according to manufacturer's instructions. In brief, cells were plated at 10,000 cells per well in a clear bottom white 96 well microtiter plate (Costar catalog #3604) in 100 μL of cell growth medium. Compounds were then added to the cells to give final concentrations of compound ranging from 20 to 0.1 μM. Cells were incubated 48 hours after which 100 μL per well of celltiter-glo reagent was added and luminescence was measured in a BMG polarstar plate luminometer. A plot of counts per minute versus log concentration of compounds was fitted to a sigmoidal dose response curve using Graphpad Prism software to generate IC50 values.

For test [3], the system named is NCI-H929 human plasmacytoma cells. The test can be described thus: CellTiter-Glo luminescent cell viability assay, NCI-H929. Type of test: cell-based. The settings on record: 48 hours, 20 to 0.1 μM. The method, then:
as §1

Regarding `CN1CCN(Cc2cccc(NC(=O)c3cc(N)n(-c4ncc5c(n4)-c4ccccc4CC5)n3)c2)CC1`, the values for the IC50 in test [1], in test [2] and in test [3] were at most 5 µM, 10 to 15 µM and 10 to 15 µM, respectively.
Regarding `COc1ccc2c(c1)OCc1cnc(-n3cc(C(=O)NCCCc4ccncc4)c(N)n3)nc1-2`, the IC50 in test [1], in test [2] and in test [3] was 10 to 15 µM throughout.
Turning to `CN1CCN(c2ccc3nc(-c4cc(-c5cccnc5)ccc4O)[nH]c3c2)CC1`, the IC50 in test [1] is at most 5 µM; in test [2] it was 10 to 15 µM; in test [3], 10 to 15 µM.
For `CN1CCN(c2ccc3nc(-c4ccc(OCc5ccccc5)cc4O)[nH]c3c2)CC1`, the figures for the IC50 in test [1], in test [2] and in test [3] were at most 5 µM, 10 to 15 µM and over 25 µM, respectively.
On the same counts, the results for `CN1CCN(c2ccc3nc(-c4ccc(O)c(O)c4O)[nH]c3c2)CC1` are at most 5 µM, 10 to 15 µM and 10 to 15 µM.
The matching figures for `CCN1CCC2(CCN(c3cc(C)c4nc(-c5c(NC[C@@H](O)c6cccc(Cl)c6)cc[nH]c5=O)[nH]c4c3)C2)C1` (stereo partly drawn): at most 5 µM, 5 to 10 µM and at most 5 µM.
The matching figures for `Cc1cc(N2CCN(C)CC2)cc2nc(-c3nc4cc(N5CCN(C)CC5)cc(C)c4[nH]3)[nH]c12`: at most 5 µM, over 25 µM and 10 to 15 µM.
Take `CCN1CCC2(CCN(CCc3ccc(NC(=O)c4ccc5[nH]c(-c6cc(-c7cccnc7OC)ccc6O)nc5c4)cc3)C2)C1` (stereo not drawn): the IC50 in test [1] is at most 5 µM; in test [2] it was 10 to 15 µM; in test [3] it was at most 5 µM.
Take `COc1ncccc1-c1ccc(O)c(-c2nc3ccc(C(=O)Nc4ccc(CCN5CCCC6(CCCN(C)C6)C5)cc4)cc3[nH]2)c1` (stereo not drawn): the IC50 in test [1] is at most 5 µM; in test [2], 5 to 10 µM; in test [3], at most 5 µM.
As to `COc1ncccc1-c1ccc2[nH]c(-c3nc4cc(N5CCN(C)CC5)ccc4[nH]3)nc2c1`, the results for the IC50 in test [1], in test [2] and in test [3] were at most 5 µM, 10 to 15 µM and at most 5 µM, respectively.
Consider `COc1ncccc1-c1ccc2[nH]c(-c3nc4cc(C(=O)Nc5ccc(CCN6CCN(C)CC6)cc5)ccc4[nH]3)nc2c1`, for which the figures for the IC50 in test [1], in test [2] and in test [3] were at most 5 µM, 10 to 15 µM and at most 5 µM, respectively.
On to `CCN1CCC2(CCN(CCc3ccc(NC(=O)c4ccc5[nH]c(-c6cc(-c7cccnc7O)ccc6O)nc5c4)cc3)C2)C1` (stereo not drawn) [drawing 1786], for which the IC50 in test [1] is at most 5 µM; in test [2] it was 5 to 10 µM; in test [3], at most 5 µM.
As for `CN1CCCC2(CCCN(CCc3ccc(NC(=O)c4ccc5nc(-c6cc(-c7cccnc7O)ccc6O)[nH]c5c4)cc3)C2)C1` (stereo not drawn) [drawing 1788], the figures for the half-inhibitory concentration (IC50) in test [1], in test [2] and in test [3] were at most 5 µM, 10 to 15 µM and at most 5 µM, respectively.

One may read the IC50 as the concentration that gives 50% inhibition.
